Literature values, collected in patent US20250295646A1, “METHODS OF USE OF T-TYPE CALCIUM CHANNEL MODULATORS” (Praxis Precision Medicines, Inc., priority 2022, published 2025).

Settings: WO 2020/072773, cited from earlier work

Compound: CC(C)c1ccc(CC(=O)N[C@H](C)c2ccc(OCC(F)(F)F)cn2)cc1 [CX-8998]
- discontinuation due to intolerability of adverse events (28-day essential tremor study): 17%
- discontinuation rate (28-day essential tremor study): 23%
- tolerability of doses of 20 and 24 mg: less well tolerated
- single doses generally well tolerated (non-titrated): up to 16 mg
